In brackets after ≈: the same amount, converted by molar mass.

For this data set the following is noted: buffer; pH 7.4; 200.0 µM.
Compound `CCCc1nnc(SCC(=O)NC2CCCCC2)n1CCOC` had a solubility (kinetic) above 51.1 µg/mL.
Under `Fc1ccccc1N1CCN(c2ncnc3nc[nH]c23)CC1` stands 1.3 µg/mL (≈ 4.36 µM); under `CC(C)(C)c1ccc(-c2ncccc2O)cc1.Cl`, 10.6 µg/mL; under `C=CCc1ccccc1Oc1cc(F)nc(N)n1`, 27.7 µg/mL (≈ 113 µM).
Under `Cc1ccc(NC(=O)c2ccc(F)cc2F)cc1NS(C)(=O)=O` stands 39.7 µg/mL (≈ 117 µM); under `O=C(O)Cc1ccc(S(=O)(=O)Nc2ccccc2C(=O)O)cc1`, 43.4 µg/mL (≈ 129 µM).
Under `CCOC(=O)c1cc(NC(=O)/C=C\C(=O)O)ccc1Cl` stands above 44.7 µg/mL; under `CC1(C)CC(=O)C(C(O)c2ccc([N+](=O)[O-])cc2)C(C)(C)N1` (stereo not given), 39.9 µg/mL (≈ 130 µM).
In turn, `CCn1cc(C(=O)N2CCOCC2)c2ccccc21` yielded a kinetic solubility above 38.7 µg/mL.
In the case of `Cc1cccc(C)c1CC(=O)N1CCOCC1` it was 34.6 µg/mL (≈ 148 µM).
Under `COc1ccccc1C(CNc1ncccc1[N+](=O)[O-])N(C)C` (stereo not given) stands above 47.5 µg/mL; under `CCN(Cc1ccncc1)C(=S)NCc1ccccc1`, 42.1 µg/mL (≈ 148 µM).
In the case of `Cc1ccc(NC(=O)C2CCCCC2C(=O)O)cc1C` (stereo not given) it was 40.4 µg/mL (≈ 147 µM); in that of `Cc1ccccc1Sc1ncccc1[N+](=O)[O-]`, 5.1 µg/mL (≈ 20.7 µM); in that of `Cc1ccc(SCC(=O)Nc2ccc(N3CCOCC3)cc2)cc1C`, 12.3 µg/mL (≈ 34.5 µM).
In the case of `COc1ccc2[nH]c(C(=O)O)c(NC(=O)c3ccccc3[N+](=O)[O-])c2c1`, the solubility (kinetic) was above 53.3 µg/mL.
Take `O=C(Cc1ccccc1F)Nc1ccccc1-c1ccccc1`: the kinetic solubility was 7.1 µg/mL (≈ 23.3 µM).
`Cn1cnnc1SCC(=O)NC1CCCC1`: the solubility (kinetic) is above 36 µg/mL.
Under `CCCn1cnc2cc(NCc3cccs3)ccc21` stands above 40.7 µg/mL.
Under `CC(C)n1c(=S)[nH]c2cc(C(F)(F)F)ccc21` stands 9.1 µg/mL (≈ 35 µM); under `OCCC1CN(C/C=C/c2ccco2)CCN1Cc1ccccc1` (stereo not given), 40 µg/mL (≈ 123 µM); under `Cc1cccc(Nc2nc(C)cc(C)c2C#N)c1`, 0.8 µg/mL (≈ 3.37 µM).
Under `O=C(Nc1nccs1)C1CC(=O)N(CCc2ccc(F)cc2)C1` (stereo not given) stands above 50 µg/mL; under `CN(CCC(=O)Nc1ccc(Cl)cc1)Cc1ccccc1.Cl`, above 50.9 µg/mL; under `Cc1ccc(Cn2ncc(C)c2N)o1`, above 28.7 µg/mL.
For `Fc1ccc(Nc2ccnc(C(F)(F)F)c2)cc1`, the kinetic solubility stood at 25.7 µg/mL (≈ 100 µM).
Under `CC(C)c1ccc(NC2CCCN(C(=O)c3cccnc3)C2)cc1` (stereo not given) stands above 48.5 µg/mL.
The compound `CC(=O)Nc1ccc(OCc2ccc3c(c2)OCO3)cc1` gave a solubility (kinetic) of 15.4 µg/mL (≈ 54 µM).
In the case of `CCOC(=O)C1CCN(S(=O)(=O)c2ccc(NC(C)=O)c(Cl)c2)CC1` it was 7.3 µg/mL (≈ 18.8 µM).
In the case of `CCOC(=O)C(NCCOC)(NC(C)=O)C(F)(F)F` (stereo not given) it was above 42.9 µg/mL; in that of `CCc1ccc2nc(N(CCN(C)C)C(=O)/C=C/c3cccs3)sc2c1.Cl`, below 0.3 µg/mL; in that of `COc1cc(OC)cc(C(=O)N[C@H](C(=O)OCC(=O)c2ccc(C)c([N+](=O)[O-])c2)C(C)C)c1`, 28.8 µg/mL (≈ 62.8 µM).
In the case of `O=S(=O)(Nc1ccc(N2CCCCC2)cc1)c1ccccc1F` it was 12 µg/mL (≈ 35.9 µM); in that of `O=C(c1nc2ccccc2[nH]1)c1ccccc1[N+](=O)[O-]`, 32.3 µg/mL (≈ 121 µM).
Turning to `O=C1CC(N2CCC(c3nc4ccccc4o3)CC2)C(=O)N1` (stereo not given), the kinetic solubility amounted to 43.1 µg/mL (≈ 144 µM).
In the case of `O=C(COC(=O)c1ccc2c(c1)OCCO2)NCCc1ccc(F)cc1` it was 5.3 µg/mL (≈ 14.7 µM).
`Cc1cc(Br)ccc1NC(=O)CNC(=O)c1cnn(C)c1` gave a kinetic solubility above 52.7 µg/mL.
Under `Cc1nnc(SCC(=O)Nc2ccc(F)cc2)n(N)c1=O` stands above 46.4 µg/mL; under `CC1CCN(Cc2cc(=O)oc3ccc4ccccc4c23)CC1`, 2.3 µg/mL (≈ 7.48 µM).
In the case of `Cc1ccc(-c2nc3ncccc3o2)cc1NC(=O)c1cccnc1` it was 7.6 µg/mL (≈ 23 µM); in that of `CCn1c(C)cc(C(=O)COC(=O)c2cccnc2SC)c1C`, 3.7 µg/mL (≈ 11.1 µM).
In turn, `COc1ccc(NC(=O)c2cc(-c3ccc(C)cc3)on2)cc1` displayed a solubility (kinetic) below 0.3 µg/mL.
In the case of `COc1cccc(/C=C/C(=O)Nc2ccc3[nH]c(=O)[nH]c3c2)c1` it was 6.7 µg/mL (≈ 21.7 µM).
In the case of `CCOC(=O)C(=O)N1CCC(Cc2ccccc2)CC1` it was 35.8 µg/mL (≈ 130 µM); in that of `O=C(CSc1ncccn1)NC(=O)Cc1ccccc1`, above 43.1 µg/mL; in that of `Nc1nccnc1C(=O)OCC(=O)C12CC3CC(CC(C3)C1)C2`, 2.9 µg/mL (≈ 9.2 µM).
In the case of `O=c1[nH]c2ccccc2nc1-c1ccc(Cl)cc1` it was below 0.3 µg/mL; in that of `CCOC(=O)C1CCN(c2c(NCCC(C)C)c(=O)c2=O)CC1`, above 48.4 µg/mL.
`C=CCn1ccc(O)c(Cc2ccc(Cl)cc2)c1=O` gave a solubility (kinetic) of 38.6 µg/mL (≈ 140 µM).
Regarding `CCC(C(=O)O)n1cnc2scc(-c3ccc(C)c(C)c3)c2c1=O` (stereo not given), the kinetic solubility was above 51.4 µg/mL.
Turning to `Cc1ccsc1CNCC(O)c1ccccc1.Cl` (stereo not given), the solubility (kinetic) was above 42.6 µg/mL.
Compound `Cc1ccc(OC(C)C(=O)Nc2ccncc2)cc1` (stereo not given) displayed a kinetic solubility of 31.7 µg/mL (≈ 124 µM).
As for `CC(NC(=O)c1ccc(Br)s1)c1ccncc1` (stereo not given), the solubility (kinetic) was above 46.7 µg/mL.
Under `N#Cc1cccnc1N1CCN(C(=O)c2ccco2)CC1` stands above 42.3 µg/mL; under `COc1cc2c(cc1OC)C(c1cccc(F)c1)CC(=O)N2` (stereo not given), above 45.2 µg/mL.
Take `Cc1ccc(S(=O)(=O)Nc2nc(C)c(C)s2)cc1`: the solubility (kinetic) turned out to be 13.5 µg/mL (≈ 47.8 µM).
In the case of `O=S(=O)(Nc1ccc(F)cc1)N1CCOCC1` it was above 39 µg/mL; in that of `O=C1CSC(=Nc2ccc(Cl)cc2)N1`, 33.7 µg/mL (≈ 149 µM); in that of `CCOc1ccc(N2C(=O)Cc3ccccc3C2=O)cc1`, 26.9 µg/mL (≈ 95.6 µM).
Consider `O=C(COC(=O)c1ccccc1O)NC12CC3CC(CC(C3)C1)C2`, for which the solubility (kinetic) came to 14.5 µg/mL (≈ 44 µM).
In the case of `CC(=O)NC1(C(F)(F)F)C(=O)Nc2c1c(=O)[nH]c(=O)n2CC(C)C` (stereo not given) it was below 0.2 µg/mL; in that of `Fc1ccccc1-c1csc(-c2cccnc2)n1`, 0.4 µg/mL (≈ 1.56 µM); in that of `O=C(NCC1CCCCC1)c1cccc([N+](=O)[O-])c1`, 20.2 µg/mL (≈ 77 µM).
In the case of `CN(C)c1ccncc1C(=O)Nc1ccc(F)cc1F` it was above 41.6 µg/mL; in that of `Cc1ccc(C(=O)Nc2ccc3ccccc3n2)cc1`, 2.3 µg/mL (≈ 8.77 µM).
In the case of `CC(C)(C)c1ccc(/C=C/C(=O)Nc2cccnc2)cc1` it was 1 µg/mL (≈ 3.57 µM).
The compound `CN(C)CC(C)(C)CNc1ccc(S(=O)(=O)N2CCCC2)cn1` showed a kinetic solubility above 51.1 µg/mL.
In the case of `Cc1nc(N2CCN(Cc3ccc4c(c3)OCO4)CC2)[nH]c(=O)c1C` it was above 51.4 µg/mL.
Under `Clc1ccccc1NC1=NCCCS1` stands above 34 µg/mL; under `OCc1ccc(OCCCOc2cccc3cccnc23)cc1`, 30.5 µg/mL (≈ 98.6 µM).
Under `CN(C)S(=O)(=O)c1cccc(NC(=O)COC(=O)c2cccnc2Cl)c1` stands above 59.7 µg/mL; under `CCCCCc1cc(O)c2c3c(c(=O)oc2c1)CN(C)CC3`, below 0.6 µg/mL; under `O=C1OCC(c2ccccc2)=C1c1ccccc1[N+](=O)[O-]`, above 42.2 µg/mL.
As for `CC1(C)CN2C(=O)c3ccccc3C2(C)S1` (stereo not given), the kinetic solubility was above 35 µg/mL.
Under `O=C(c1cccc(Br)c1)N1CCN(c2ccccn2)CC1` stands above 51.9 µg/mL; under `Cc1ccnc(NC(=O)c2ccc3c(c2)OCO3)c1`, above 38.4 µg/mL.
Under `Cc1ccccc1N1CCN(CC(=O)Nc2nccs2)CC1` stands 44.2 µg/mL (≈ 140 µM); under `Cc1ccc(S(=O)(=O)N2CCCC(C(=O)NC3CCCC3)C2)cc1` (stereo not given), 0.5 µg/mL (≈ 1.43 µM); under `O=S(=O)(Cc1ccccc1)N(O)c1ccccc1`, 7 µg/mL (≈ 26.6 µM).
In the case of `CCOc1ccccc1C(=S)NC1CCCCC1` it was 14.5 µg/mL (≈ 55 µM); in that of `O=C(CCNC(=O)c1ccco1)Nc1ccc(Cl)cc1F`, above 46.6 µg/mL; in that of `Cc1ccc(C)c(NC(=S)NCCc2c[nH]c3ccccc23)c1`, 17.1 µg/mL (≈ 52.9 µM).
Turning to `Cc1cc(C)nc(SCC(=O)Nc2nccs2)n1`, the solubility (kinetic) was above 42.1 µg/mL.
Under `CCCCCc1nnc(NC(=O)c2ccc(=O)n(C)n2)s1` stands above 46.1 µg/mL; under `O=C(CSc1ccc(F)cc1)NCCc1ccc(Cl)cc1`, 8.6 µg/mL (≈ 26.6 µM).
Under `Cc1cc(C)nc(SCC(=O)Nc2ccnc3ccccc23)n1` stands 6.6 µg/mL (≈ 20.3 µM); under `c1cncc(-c2nc(-c3ccc4c(c3)OCCO4)cs2)c1`, 4.6 µg/mL (≈ 15.5 µM); under `Cc1cc(C)n2nc(C(=O)OCC(=O)c3ccccc3)nc2n1`, above 46.5 µg/mL.
In the case of `COC(=O)c1ccc(S(=O)(=O)c2ccc([N+](=O)[O-])cc2)cc1` it was 0.9 µg/mL (≈ 2.8 µM); in that of `NC(=O)c1cc2cc(Cc3ccccc3Cl)ccc2oc1=O`, 1.2 µg/mL (≈ 3.82 µM).
As for `Cc1cccn2cc(CCNC(=O)Cc3cccs3)nc12`, the kinetic solubility is above 44.9 µg/mL.
In turn, `Cc1csc(SCC(=O)Nc2nccs2)n1` gave a kinetic solubility above 40.7 µg/mL.
Take `CCOc1cc(C(=O)Nc2ccc(S(=O)(=O)Nc3onc(C)c3C)cc2)cc(OCC)c1OCC`: the solubility (kinetic) was above 75.5 µg/mL.
As for `O=C(CCN1C(=O)C2CC=CCC2C1=O)Nc1ccccc1Cl` (stereo not given), the solubility (kinetic) was above 49.9 µg/mL.
In the case of `COc1cccc(NC(=O)NCc2c(-c3ccccc3)noc2C)c1` it was 2.4 µg/mL (≈ 7.11 µM); in that of `Cc1ccc(S(=O)(=O)N(C)C)cc1NC(=O)C(C)OC(=O)C1CCC1` (stereo not given), above 55.3 µg/mL.
For the compound `COc1ccc(OC)c(Nc2nc(-c3ccncc3)nc3ccccc23)c1`, the kinetic solubility was below 0.2 µg/mL.
Under `CCC(=O)c1cn(CC(=O)Nc2ccc(C)cc2C)c2ccccc12` stands below 0.4 µg/mL; under `CCCCCCOC(=O)Cc1c(C)nc(N)[nH]c1=O`, above 40.1 µg/mL.
Under `CCCCN(C(=O)C1CC(=O)N(c2ccc3c(c2)OCCO3)C1)c1c(N)n(CCC)c(=O)[nH]c1=O` (stereo not given) stands above 72.8 µg/mL.
Compound `CSc1ccc(S(=O)(=O)N2c3ccccc3CC2C)cc1` (stereo not given) registered a solubility (kinetic) of 1.7 µg/mL (≈ 5.32 µM).
In the case of `O=[N+]([O-])/C(C(=C(Cl)Cl)N1CCOCC1)=C1\NCCO1` it was above 46.5 µg/mL.
Under `COc1ccc(Cl)cc1C(=O)NC(=S)Nc1nc(C)cc(C)n1` stands 0.4 µg/mL (≈ 1.14 µM); under `CCOP(=O)(c1ccc(N(C)C)cc1)C(O)c1cccnc1` (stereo not given), above 48 µg/mL; under `O=C(COc1ccc(-c2ccccc2)cc1)Nc1cccnc1`, 4.2 µg/mL (≈ 13.8 µM).

Broadly, the solubility (kinetic) is the concentration staying in solution when a stock, usually in DMSO, is diluted into the medium.

Source of the values: PubChem BioAssay AID1996.
